Key:
HeLa [1] = assay: Antiproliferative activity against human HeLa cells assessed as inhibition of cell growth incubated for 72 hrs by MTT assay; type: functional, cell-based
[2] = (§1) Cytotoxicity against human MRC5 cells assessed as inhibition of cell growth incubated for 72 hrs by MTT assay; type: toxicity, cell-based; conditions: human, MRC5 cells
K562 [3] = assay: Antiproliferative activity against human K562 cells assessed as inhibition of cell growth incubated for 72 hrs by MTT assay; type: functional, cell-based; conditions: K562, 72 h
A549 [4] = assay: Potency index, ratio of cleistenolide IC50 to test compound IC50 for antiproliferative activity against human A549 cells assessed as inhibition of cell growth incubated for 72 hrs by MTT assay; type: functional
MDA-MB-231 = assay: Antiproliferative activity against estrogen receptor negative human MDA-MB-231 cells assessed as inhibition of cell growth incubated for 72 hrs by MTT assay; type: functional, cell-based; conditions: MDA-MB-231, 72 h
A549 [5] = assay: Antiproliferative activity against human A549 cells assessed as inhibition of cell growth incubated for 72 hrs by MTT assay; type: functional, cell-based; conditions: A549, 72 h
A549 [6] = assay: Potency index, ratio of doxorubicin IC50 to test compound IC50 for antiproliferative activity against human A549 cells assessed as inhibition of cell growth incubated for 72 hrs by MTT assay; type: functional
Raji [7] = assay: Antiproliferative activity against human Raji cells assessed as inhibition of cell growth incubated for 72 hrs by MTT assay; type: functional, cell-based
Jurkat = assay: Antiproliferative activity against human Jurkat cells assessed as inhibition of cell growth incubated for 72 hrs by MTT assay; type: functional, cell-based
MCF7 [8] = assay: Antiproliferative activity against estrogen receptor positive human MCF7 cells assessed as inhibition of cell growth incubated for 72 hrs by MTT assay; type: functional, cell-based; conditions: MCF7, 72 h
HL-60 = assay: Antiproliferative activity against human HL-60 cells assessed as inhibition of cell growth incubated for 72 hrs by MTT assay; type: functional, cell-based; conditions: HL-60, 72 h
K562 [9] = assay: Potency index, ratio of cleistenolide IC50 to test compound IC50 for antiproliferative activity against human K562 cells assessed as inhibition of cell growth incubated for 72 hrs by MTT assay; type: functional
Raji [10] = assay: Potency index, ratio of cleistenolide IC50 to test compound IC50 for antiproliferative activity against human Raji cells assessed as inhibition of cell growth incubated for 72 hrs by MTT assay; type: functional
MRC5 = assay: as §1; type: toxicity, cell-based; conditions: mrc5
MCF7 [11] = assay: Potency index, ratio of cleistenolide IC50 to test compound IC50 for antiproliferative activity against human MCF7 cells assessed as inhibition of cell growth incubated for 72 hrs by MTT assay; type: functional
HeLa [12] = assay: Potency index, ratio of cleistenolide IC50 to test compound IC50 for antiproliferative activity against human HeLa cells assessed as inhibition of cell growth incubated for 72 hrs by MTT assay; type: functional

Compound	IC50 (HeLa [1]) [µM]	IC50 (K562 [3]) [µM]	IC50 (MDA-MB-231) [µM]	IC50 (A549 [5]) [µM]	IC50 (Raji [7]) [µM]	IC50 (Jurkat) [µM]	IC50 (MCF7 [8]) [µM]	IC50 (HL-60) [µM]	IC50 at 72 h [2] [µM]	Ratio IC50 (A549 [4])	Ratio IC50 (A549 [6])	Ratio IC50 (K562 [9])	Ratio IC50 (Raji [10])	IC50 (MRC5) [µM]	Ratio IC50 (MCF7 [11])	Ratio IC50 (HeLa [12])
CC(=O)O[C@H](COC(=O)c1ccccc1)[C@H]1OC(=O)C=C[C@H]1OC(=O)/C=C/c1ccccc1	7	0.76	4.29	8.55	3.3	11.8	22.5	6.36	> 100	–	–	>10	>10	–	–	–
CC(=O)O[C@H](COC(=O)c1ccccc1)[C@H]1OC(=O)C=C[C@H]1OS(C)(=O)=O	14.2	8.78	14.9	11.3	17	15.2	3.26	3.63	–	–	–	–	–	> 100	~8	–
CC(=O)O[C@H](COC(=O)c1ccccc1)[C@H]1OC(=O)C=C[C@H]1OC(=O)/C=C/c1ccc(F)cc1	17.9	6.75	17.7	87.6	26.4	28.6	5.28	16.1	> 100	–	–	–	–	–	–	–
COc1cccc(C(=O)O[C@@H]2C=CC(=O)O[C@@H]2[C@@H](COC(=O)c2ccccc2)OC(C)=O)c1	9.43	1.59	25.6	12.1	25.2	25.3	8.79	1.7	> 100	–	–	5	–	–	–	–
CC(=O)O[C@H](COC(=O)c1ccccc1)[C@H]1OC(=O)C=C[C@H]1O[Si](c1ccccc1)(c1ccccc1)C(C)(C)C	3.35	5.85	8.36	30.6	25.1	19.7	9.39	5.64	> 100	–	–	–	–	–	–	>2
CC(=O)OC[C@@H](OC(C)=O)[C@H]1OC(=O)C=C[C@H]1OCc1ccccc1	6.17	1.12	16.1	23.2	11.7	19	15.5	1.39	> 100	–	–	5	–	–	–	–
CC(=O)O[C@H](COC(=O)c1ccccc1)[C@H]1OC(=O)C=C[C@H]1O[Si](C)(C)C(C)(C)C	9.96	6.72	35.4	12.1	18.8	16.7	4.14	11.6	> 100	–	–	–	–	–	–	–
CC(=O)O[C@@H]1C=CC(=O)O[C@@H]1[C@@H](COC(=O)c1ccccc1)OC(C)=O	–	–	–	–	–	–	–	–	> 100	–	–	–	–	–	–	–
CC(=O)O[C@H](COC(=O)c1ccccc1)[C@H]1OC(=O)C=C[C@H]1OC(=O)C(c1ccccc1)c1ccccc1	9.75	6.32	17.6	11	14	14.5	2.83	4.64	> 100	–	–	–	–	–	>9	–
CC(=O)O[C@H](COC(=O)c1ccccc1)[C@H]1OC(=O)C=C[C@H]1OC(=O)c1c(Cl)cc(Cl)cc1Cl	8.71	11.9	23.4	5.02	23.6	9.4	28.4	22.9	> 100	–	–	–	–	–	–	–

Further lines, with some results ahead:

IC50 (HeLa [1]) [µM]	IC50 (K562 [3]) [µM]	IC50 (MDA-MB-231) [µM]	IC50 (A549 [5]) [µM]	IC50 (Raji [7]) [µM]	IC50 (Jurkat) [µM]	IC50 (MCF7 [8]) [µM]	IC50 (HL-60) [µM]	Compound	IC50 at 72 h [2] [µM]	Ratio IC50 (A549 [4])	Ratio IC50 (A549 [6])	Ratio IC50 (K562 [9])	Ratio IC50 (Raji [10])	IC50 (MRC5) [µM]	Ratio IC50 (MCF7 [11])	Ratio IC50 (HeLa [12])
13.3	5.82	15.5	2.55	25	23.5	21.3	24.5	CC(=O)O[C@H](COC(=O)c1ccccc1)[C@H]1OC(=O)C=C[C@H]1OC(=O)/C=C/c1ccc([N+](=O)[O-])cc1	> 100	>6	~2	–	–	–	–	–
8.3	0.67	19.2	12.9	19.2	12	5.9	3.34	O=C1C=C[C@@H](OCc2ccccc2)[C@@H]([C@@H](COC(=O)c2ccccc2)OCc2ccccc2)O1	> 100	–	–	>10	–	–	–	–
10.8	2.65	15.9	22.9	10.7	18.3	5.01	4.39	CC(=O)OC[C@@H](OC(C)=O)[C@H]1OC(=O)C=C[C@H]1OC(=O)c1ccccc1	> 100	–	–	–	–	–	–	–
6.09	3.4	24.4	16.5	29.4	27.2	8.26	22.3	CC1(C)O[C@H]2O[C@@H]3C=CC(=O)O[C@@H]3[C@H]2O1	> 100	–	–	–	–	–	–	–
6.79	5.58	23.7	16.2	13.1	15.5	15.1	9.84	CC(=O)O[C@@H](COC(=O)c1ccccc1)[C@H]1OC(=O)C=C[C@H]1OC(C)=O	98.2	–	–	–	–	–	–	–
8.73	4.52	15.9	13.6	26.4	22.6	6.35	5.75	COc1ccc(/C=C/C(=O)O[C@@H]2C=CC(=O)O[C@@H]2[C@@H](COC(=O)c2ccccc2)OC(C)=O)cc1OC	> 100	–	–	–	–	–	–	–
15.8	4.5	14.8	12.4	18.9	26.6	11.3	20.9	CC(=O)O[C@H](COC(=O)c1ccccc1)[C@H]1OC(=O)C=C[C@H]1OS(=O)(=O)c1ccc(C)cc1	> 100	–	–	–	–	–	–	–
4.69	1.23	14.1	19.9	11.3	15.3	10.5	12.3	O=C1C=C[C@@H](O)[C@@H]([C@@H](O)COC(=O)c2ccccc2)O1	> 100	–	–	5	–	–	–	–
5.36	1.18	45.6	12.5	19.8	17.5	4.58	9.62	CC(=O)OC[C@@H](O)[C@H]1OC(=O)C=C[C@H]1O	> 100	–	–	5	–	–	–	–
15.6	1.28	26.6	41.6	25.7	24.1	12.8	15.3	COc1ccc(/C=C/C(=O)O[C@@H]2C=CC(=O)O[C@@H]2[C@@H](COC(=O)c2ccccc2)OC(C)=O)cc1	> 100	–	–	5	–	–	–	–
